# Experimental data published in US12648947B2, “Heterocyclic derivatives, pharmaceutical compositions and their use in the treatment, amelioration or prevention of fibrotic disease” (TOLREMO THERAPEUTICS AG, priority 2020, dated 2026).
# pEC50: −log10 of the molar value. Read-outs that look alike come from different tables or passages of the source.
# Key:
# [1] = test system: TGF-β1 induced α-smooth muscle actin (αSMA) production by IPF diseased donor's lung fibroblast; assay: Fibroblast-to-Myofibroblast Transition (FMT) assay; format: cell-based; conditions: for IC50: Fibroblast, 72 h, 1.25 ng/ml TGF-β1, 72 h, read-out: IC50 αSMA, Log (converted); for Potential toxicity Log [M]: concentration with >25% cell loss (DAPI nuclei); for Max. Percentage Inhibition (PIN), [%]: αSMA
# Procedure: Lung fibroblasts from 3 IPF donors (Pat1-3) were seeded for automated high-content/high-throughput microscopy. At day 2 cell culture medium was refreshed in the wells and fibroblast grown until day 5, at which point drug treatment was initiated.
# Drug addition was done 1 h before stimuli addition (1.25 ng/ml TGF-β1). For trigger controls wells with fibroblasts were treated with medium (unstimulated control) or 1.25 ng/ml TGF-β1 (stimulated control). For assay controls fibroblasts were treated with 1.25 ng/ml TGF-β1+0.1% DMSO (unstimulated control) or 1.25 ng/ml TGF-β1+1 μM SB525334 (positive control for inhibition). Reference compound and clinically approved drug nintedanib was added as concentration response curve (CRC) with 8-points in a semi-Log dilution starting from 10 μM.
# Wells were fixed with 4% paraformaldehyde and stained for α-smooth muscle actin (αSMA) expression using immunofluorescence and with DAPI to assess nuclei number per well. Image acquisition and high content analysis (HCA) of αSMA and DAPI was done on a high content microscope.
# (§1) Analysis of αSMA/FN1: Images were segmented and quantificatied for αSMA/FN1 immunoreactivity by an HCA algorithm, with density x area (DxA) output. Data were normalized from raw αSMA/FN1 (DxA) to percentage inhibition (PIN) values, on a plate-to-plate basis
# (§2) [formula] • μp is the average αSMA/FN1 value of the positive control (TGF-β1+1 μM SB525334) • μn is the average of αSMA/FN1 value of the vehicle control (TGF-β1+0.1% DMSO) • Xi is the compound αSMA/FN1 value
# (§3) Analysis of % Remaining cells: DAPI fluorescence applied for HCA-based quantification of the number of imaged cells, on a plate-to-plate basis.
# (§4) [formula] • μn is the average numbers of nuclei of the vehicle control (TGF-β1+0.1% DMSO) • Xi is the compound number of nuclei
# [2] = test system: TGF-β1 induced Fibronectin 1 (FN1) production by IPF diseased donor's bronchial epithelial cells; assay: Epithelial-to-Mesenchymal Transition (EMT) assay; format: cell-based; parameters: Δ Percentage Inhibition (PIN), [%]: concentration or dose not given beside the values; conditions: for IC50: Epithelial cell, 72 h, 5.0 ng/ml TGF-β1, 72 h, read-out: IC50 FN1, Log (converted); for Δ Percentage Inhibition (PIN), [%]: FN1
# Procedure: Bronchial epithelial cells (BEC) from 3 IPF donors (PatA-C) were seeded for automated high-content/high-throughput microscopy. At day 2 cell culture medium was refreshed in the wells and cells grown until day 5, at which drug treatment was initiated.
# Drug addition was done 1 h before stimuli addition (5.0 ng/ml TGF-β1). For trigger controls wells with BEC were treated with medium (unstimulated control) or 5.0 ng/ml TGF-β1 (stimulated control). For assay controls fibroblasts were treated with 5.0 ng/ml TGF-β1+0.1% DMSO (unstimulated control) or 5.0 ng/ml TGF-β1+1 μM SB525334 (positive control for inhibition). The reference compound and clinically approved drug nintedanib was added as concentration response curve (CRC) with 8-points in a semi-Log dilution staring from 10 μM. […] Wells were fixed with 4% paraformaldehyde and stained for Fibronectin (FN1) expression using immunofluorescence and with DAPI to assess nuclei number per well. Image acquisition and high content analysis (HCA) of FN1 and DAPI was done on a high content microscope.
# as §1, §2, §3, §4
# HCC827 lung cancer cells = assay: Fibrotic gene expression analysis by RNA sequencing; format: cell-based; conditions: 1 μM, 24 h vs DMSO
# Procedure: (§5) 250000 HCC827 (ATCC; CRL 2868) cells/well or 200000 NCI-H1975 (ATCC; CRL 5908) cells/well were seeded in 6-well dishes (Greiner Bio-One, 7657160) the day before drug treatment in RPMI medium containing 10% FCS and 2 mM L-Glutamine. […] Subsequently cells were washed 3 times with 2 ml PBS and lysed in 300 μl lysis buffer (RA1+1% TCEP [Sigma 646547]). RNA is extracted according to Macherey-Nagel NucleoSpin 8 RNA Kit protocol for vacuum (740698.5) for RNA extraction and RNA is eluted in H2O. RNA Library preparation and sequqnening was done externally. In short, RNA sequencing libraries were generated using TruSeq RNA Sample Prep Kit v2 following manufacturer's recommendations and index codes were added to attribute sequences to each sample. Samples were sequenced using an Illumnia platform, with paired-end reads. Illumina SBS technology utilizes a proprietary reversible terminator-based method that detects single bases as they are incorporated into DNA template strands. The original data obtained from the high throughput sequencing platforms were transformed to sequenced reads by base calling. Raw data are recorded in a FASTQ file which contains sequenced reads and corresponding sequencing quality information and were further processed to obtain transcripts per million values (TPM) for variable genes.
# [3] = test system: NCI-H1975 lung cancer cells; assay: as above; format: cell-based; conditions: 1 μM, 24 h vs DMSO
# Procedure: as §5
# CBP bromodomain = target: T1, CBP bromodomain (Homo sapiens, UniProt Q92793); assay: CBP bromodomain binding assay (TR-FRET); conditions: 1 hour incubation at room temperature
# T1 construct: purchased Cayman chemicals 600850
# Procedure: Compounds solutions of 10 mM in DMSO were pre-diluted in DSMO to 25× stock solutions in DMSO. These were then diluted down to 4× in Assay buffer. A dilution series in Assay buffer was performed keeping the DMSO concentration stable. 5 μl compound in assay buffer was transferred into the assay plate (provided by assay kit) and the TR-FRET assay Cayman chemicals; 600850) was performed using the manufacture's instructions. After 1 hour incubation at room temperature in the darks, assay plates were read in a Tecan M1000 plate reader using the TR-FRET mode (top read; excitation 340 nm bandwidth 20 nM; emission 620 nm bandwidth 7 nM; gain optimal determined for the first well, number of flashes: 5; flash frequency 100 Hz; integration time: 500 μs, lag time: 100 μs, room temperature). The TR-FRET ratio was calculated by dividing 670 nm emission by 620 nm emission. […] Values were log transformed and non-linear regression with variable slope (4 parameters) was used to fit values to a dose-response curve to evaluate EC50 values (see table 5 below).
# T1 sequence (Q92793 1085-1192 limits assumed): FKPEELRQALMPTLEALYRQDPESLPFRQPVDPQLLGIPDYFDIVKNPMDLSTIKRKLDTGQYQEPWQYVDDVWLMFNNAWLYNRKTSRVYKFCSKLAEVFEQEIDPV
compound,measurement,setting,value
COc1cncc(-c2cc(Nc3cccc(F)c3)nc([C@@H]3CC[C@H](C)N(C(C)=O)C3)n2)c1 [Compound 00004],IC50,[1]; Pat1 lung fibroblast donor,1.26 µM
same,IC50,[1]; Pat2 lung fibroblast donor,2.51 µM
same,IC50,[1]; Pat3 lung fibroblast donor,2 µM
same,inhibition of TGF-β1-mediated αSMA expression,[1]; all 3 IPF donors' lung fibroblast,full concentration-dependent inhibition
same,Potential toxicity Log [M],[1]; Pat1,>−5.2 Log [M]
same,Potential toxicity Log [M],[1]; Pat2,>−5.2 Log [M]
same,Potential toxicity Log [M],[1]; Pat3,>−5.2 Log [M]
same,"Max. Percentage Inhibition (PIN), [%]",[1]; Pat1 lung fibroblast donor,90.3%
same,"Max. Percentage Inhibition (PIN), [%]",[1]; Pat2 lung fibroblast donor,127.1%
same,"Max. Percentage Inhibition (PIN), [%]",[1]; Pat3 lung fibroblast donor,105.1%
same,inhibition of TGF-β1-mediated FN1 expression,[2]; BEC from 2 IPF donors,full concentration-dependent inhibition
same,inhibition of TGF-β1-mediated FN1 expression,"[2]; BEC from one IPF donor, partial = ΔPIN <75",partial
same,modulation of the number of nuclei,"[2]; BEC, indicative of absence of potential cytotoxic side-effects",No modulation
same,IC50,[2]; PatA BEC donor,5.01 µM
same,IC50,[2]; PatB BEC donor,1 µM
same,IC50,[2]; PatC BEC donor,2 µM
same,"Δ Percentage Inhibition (PIN), [%]",[2]; PatA BEC donor,62.5%
same,"Δ Percentage Inhibition (PIN), [%]",[2]; PatB BEC donor,84.9%
same,"Δ Percentage Inhibition (PIN), [%]",[2]; PatC BEC donor,116.3%
same,"expression of genes up-regulated during fibrotic disease (MMP, FN1, COL1A1), mRNA abundance (TPM)",HCC827 lung cancer cells,reduces expression of genes
same,"expression of genes up-regulated during fibrotic disease (MMP, FN1, COL1A1), mRNA abundance (TPM)",[3],reduces expression of genes
CC(=O)N1C[C@H](c2nc(Nc3cc(F)c4cc[nH]c4c3)cc(-c3cccnc3)n2)CC[C@@H]1C [Compound 00040],pEC50,CBP bromodomain,> 6.70
CC(=O)N1C[C@H](c2nc(Nc3ccccc3)cc(-c3cncnc3)n2)CC[C@@H]1C [Compound 00062],pEC50,CBP bromodomain,6.00 to 6.70
CC(=O)N1C[C@H](c2nc(Nc3ccccc3)cc(-c3cncc4[nH]ccc34)n2)CC[C@@H]1C [Compound 00063],pEC50,CBP bromodomain,> 6.70
CC(=O)N1C[C@H](c2nc(Nc3cncc(C)c3)cc(-c3cncc4[nH]ccc34)n2)CC[C@@H]1C [Compound 00075],pEC50,CBP bromodomain,> 6.70
CC(=O)N1C[C@H](c2nc(Nc3ccncc3)cc(-c3cccnc3)n2)CC[C@@H]1C [Compound 00077],pEC50,CBP bromodomain,6.00 to 6.70
"COC(=O)c1ccc2c(c1)NC(=O)/C2=C(\Nc1ccc(N(C)C(=O)CN2CCN(C)CC2)cc1)c1ccccc1 [Nintedanib, reference compound]",IC50,[1]; Pat1 lung fibroblast donor,0.631 µM
same,IC50,[1]; Pat2 lung fibroblast donor,0.398 µM
same,IC50,[1]; Pat3 lung fibroblast donor,0.2 µM
same,Potential toxicity Log [M],[1]; Pat1,>−5.5 Log [M]
same,Potential toxicity Log [M],[1]; Pat2,>−7.0 Log [M]
same,Potential toxicity Log [M],[1]; Pat3,>−6.0 Log [M]
same,"Max. Percentage Inhibition (PIN), [%]",[1]; Pat1 lung fibroblast donor,109.3%
same,"Max. Percentage Inhibition (PIN), [%]",[1]; Pat2 lung fibroblast donor,101%
same,"Max. Percentage Inhibition (PIN), [%]",[1]; Pat3 lung fibroblast donor,98.4%
same,IC50,[2]; PatA BEC donor,10 µM
same,IC50,[2]; PatC BEC donor,0.0631 µM
same,"Δ Percentage Inhibition (PIN), [%]",[2]; PatA BEC donor,45.9%
same,"Δ Percentage Inhibition (PIN), [%]",[2]; PatB BEC donor,81.7%
same,"Δ Percentage Inhibition (PIN), [%]",[2]; PatC BEC donor,72.1%
